Assay results from patent US20220153751A1, “BIFUNCTIONAL COMPOUNDS” (BioTheryX, Inc., priority 2018, published 2022).

Legend:
Format in all cases: cell-based
CDK16 = biological target: T1, CDK16 (Homo sapiens, UniProt Q00536); experiment: CDK16 degradation assay (Western blot, MV-4-11 cells); conditions: 6-8 h; for Dmax at 0.1 µM: MV4-11, 0.1 μM; for Dmax at 1 µM: MV4-11, 1 μM
T1 construct: Whole cell extracts were prepared using RIPA buffer; endogenous in cells; host or cells: MV-4-11
Protocol: (§1) MV-4-11 cells were grown in RPMI 1640 media supplemented with 10% fetal bovine serum, streptomycin and penicillin.
(§2) Cells were cultured at approximately 10^6 cells per mL and incubated in DMSO or the indicated compound for 6-8 h. Whole cell extracts were prepared using RIPA buffer according to manufacturer's protocol (Pierce). Briefly, 3×10^6 cells were washed once in PBS, the cell pellets were resuspended in RIPA buffer and allowed to incubate for 15 minutes on ice. Cells debris was removed by centrifugation and the cleared whole cell lysates were transferred to new tubes for further analysis.
(§3) For Western blot analysis, whole cell protein extracts were separated on 4-12% SDS-polyacrylamide gels, transferred to nitrocellulose and probed with the indicated primary antibodies. Membranes were subsequently washed and probed with the appropriate IRDye secondary antibodies (LI-COR). The signal was detected using the Odyssey Imaging System (LI-COR).
(§4) The following antibodies were used in these studies: Anti-eRF3/GSPT1: Abcam, ab126090 (Cambridge, Mass.); Anti-Ikaros: Abcam, ab191394 (Cambridge, Mass.); Anti-CK1α: Abcam, ab108296 (Cambridge, Mass.); Anti-CDK9: Santa Cruz Biotechnology, sc13130 (Dallas, Tex.); Anti-CDK16: Millipore Sigma, HPA001366 (St. Louis, Mo.); 3-actin (8H10comD10) mouse monoclonal antibody: Cell Signaling Technology, #3700 (Danvers, Mass.); IRDye 680RD Goat anti-rabbit antibody: LI-COR, 926-68071 (Lincoln, Nebr.); IRDye 800CW Goat anti-mouse antibody: LI-COR, 926-32210 (Lincoln, Nebr.).
(§5) CDK9 activities are shown in Table 4 at two different concentrations. CDK16 activities are shown in Table 5 at two different concentrations. In each of Tables 1-5, the % degradation values are reported as “A”, “B”, “C”, or “D”. “A” represents a % degradation value of less than 25% (value <25%). “B” represents a % degradation value of equal to or more than 25% and less than 50% (25%≤value<50%). “C” represents a % degradation value of equal to or more than 50% and less than 75% (50%≤value<75%). “D” represents a % degradation value of equal to or more than 75% (value ≥75%).

CDK9 = biological target: T2, CDK9 (Homo sapiens, UniProt P50750); experiment: CDK9 degradation assay (Western blot, MV-4-11 cells); conditions: 6-8 h; for Dmax at 0.1 µM: MV4-11, 0.1 μM; for Dmax at 1 µM: MV4-11, 1 μM
T2 construct: Whole cell extracts were prepared using RIPA buffer; endogenous in cells; host or cells: MV-4-11
Protocol: as §1, §2, §3, §4, §5

MOLM-13 cells = experiment: MOLM-13 cell viability assay (CellTiter-Glo); conditions: Homo sapiens, MOLM-13, 72 h, 3 days, read-out: MOLM-13 Cell Viability % DMSO at 1 μM
Protocol: MOLM-13 cells were cultured in RPMI 1640 media supplemented with 10% fetal bovine serum, streptomycin and penicillin, and were plated in walled 96-well plates at 2500 cells/well. Cells were incubated in DMSO (control) or the indicated compound for 3 days at 37° C. and 5% CO2. Following the incubation period, 100 μL of CellTiterGlow (CTG) reagent (CellTiter-Glo® Luminescent Cell Viability Assay, Promega (Madison, Wis.)) was added to each well. Following a 10 minutes incubation with shaking, luminescence was measured using the EnVision Multimode plate reader.
The MOLM-13 cell viability values as % DMSO are reported as “A”, “B”, “C”, or “D”. “A” represents a % viability value of less than 50% (value <50%). “B” represents a % viability value of equal to or more than 50% and less than 70% (50%≤value<70%). “C” represents a % viability value of equal to or more than 70% and less than 90% (70%≤value<90%). “D” represents a % viability value of equal or more than 90% (value ≥90%).

T1 sequence (Q00536 whole entry): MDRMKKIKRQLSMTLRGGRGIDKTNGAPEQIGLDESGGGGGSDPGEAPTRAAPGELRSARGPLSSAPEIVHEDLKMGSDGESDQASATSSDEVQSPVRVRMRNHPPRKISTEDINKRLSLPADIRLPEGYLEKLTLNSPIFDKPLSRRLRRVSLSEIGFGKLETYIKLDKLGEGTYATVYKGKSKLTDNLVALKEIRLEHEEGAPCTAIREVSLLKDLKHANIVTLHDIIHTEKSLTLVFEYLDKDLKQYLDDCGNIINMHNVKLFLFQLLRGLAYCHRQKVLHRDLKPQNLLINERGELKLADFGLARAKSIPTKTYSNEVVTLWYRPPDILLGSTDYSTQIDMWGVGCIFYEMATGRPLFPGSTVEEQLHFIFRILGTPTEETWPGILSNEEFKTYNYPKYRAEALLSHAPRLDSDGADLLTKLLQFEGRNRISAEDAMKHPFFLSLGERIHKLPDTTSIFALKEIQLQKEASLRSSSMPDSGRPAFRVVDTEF
T2 sequence (P50750 whole entry): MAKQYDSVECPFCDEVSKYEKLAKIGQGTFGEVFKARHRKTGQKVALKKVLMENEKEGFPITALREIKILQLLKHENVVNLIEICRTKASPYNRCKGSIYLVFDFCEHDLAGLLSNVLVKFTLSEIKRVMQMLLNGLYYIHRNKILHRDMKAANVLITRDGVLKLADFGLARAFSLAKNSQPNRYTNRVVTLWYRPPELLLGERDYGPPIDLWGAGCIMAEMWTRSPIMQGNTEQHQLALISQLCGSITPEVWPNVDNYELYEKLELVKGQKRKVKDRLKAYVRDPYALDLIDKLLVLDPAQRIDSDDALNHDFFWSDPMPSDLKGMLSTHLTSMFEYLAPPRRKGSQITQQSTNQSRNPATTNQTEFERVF

SMILES	Dmax at 0.1 µM (CDK16) [%]	Dmax at 1 µM (CDK16) [%]	Dmax at 0.1 µM (CDK9) [%]	Dmax at 1 µM (CDK9) [%]	viability at 1 µM (MOLM-13 cells) [%]
Cn1ncc(-c2nc(N[C@H]3CC[C@H](NCC(=O)NCCCCCNC(=O)NCc4cc5c(s4)C(=O)N(C4CCC(=O)NC4=O)C5)CC3)ncc2Cl)c1CC1CC1 (some centres unmarked) [Compound 16, 2-(((1r,4r)-4-((5-chloro-4-(5-(cyclopropylmethyl)-1-methyl-1H-pyrazol-4-yl)pyrimidin-2-yl)amino)cyclohexyl)amino)-N-(5-(3-((5-(2,6-dioxopiperidin-3-yl)-6-oxo-5,6-dihydro-4H-thieno[2,3-c]pyrrol-2-yl)methyl)ureido)pentyl)acetamide]	≥ 75	≥ 75	50 to 75	≥ 75	> 90
CC(C)(C)c1cnc(CSc2cnc(NC(=O)C3CCN(CC(=O)NCCCCCNC(=O)NCc4cc5c(s4)C(=O)N(C4CCC(=O)NC4=O)C5)CC3)s2)o1 (centres unmarked) [Compound 1, 3-[8-Oxo-3-({3-[5-(2-{4-[(5-{[5-(tert-butyl)-1,3-oxazol-2-yl]methylthio}-1,3-thiazol-2-ylamino)carbonyl]-1-piperidyl}acetylamino)pentyl]ureido}methyl)-2-thia-7-azabicyclo[3.3.0]octa-1(5),3-dien-7-yl]-2,6-piperidinedione]					> 90
Cn1ncc(-c2nc(N[C@H]3CC[C@H](NCCCCCCCCNC(=O)NCc4cc5c(s4)C(=O)N(C4CCC(=O)NC4=O)C5)CC3)ncc2F)c1CC1CC1 (some centres unmarked) [Compound 23, 1-(8-(((1r,4r)-4-((4-(5-(cyclopropylmethyl)-1-methyl-1H-pyrazol-4-yl)-5-fluoropyrimidin-2-yl)amino)cyclohexyl)amino)octyl)-3-((5-(2,6-dioxopiperidin-3-yl)-6-oxo-5,6-dihydro-4H-thieno[2,3-c]pyrrol-2-yl)methyl)urea]	50 to 75	≥ 75	≥ 75	≥ 75	> 90
Cn1ncc(-c2nc(N[C@H]3CC[C@H](NCC(=O)NCCCCNCC(=O)NCc4scc5c4C(=O)N(C4CCC(=O)NC4=O)C5=O)CC3)ncc2F)c1CC1CC1 (some centres unmarked) [Compound 48, 2-(((1r,4r)-4-((4-(5-(cyclopropylmethyl)-1-methyl-1H-pyrazol-4-yl)-5-fluoropyrimidin-2-yl)amino)cyclohexyl)amino)-N-(4-((2-(((5-(2,6-dioxopiperidin-3-yl)-4,6-dioxo-5,6-dihydro-4H-thieno[3,4-c]pyrrol-1-yl)methyl)amino)-2-oxoethyl)amino)butyl)acetamide]					> 90
CN(CCNCC(=O)NCc1cc2c(s1)C(=O)N(C1CCC(=O)NC1=O)C2)CCNC(=O)CN1CCC(C(=O)Nc2ncc(SCc3ncc(C(C)(C)C)o3)s2)CC1 (centres unmarked) [Compound 47, N-(5-(((5-(tert-butyl)oxazol-2-yl)methyl)thio)thiazol-2-yl)-1-(1-(5-(2,6-dioxopiperidin-3-yl)-6-oxo-5,6-dihydro-4H-thieno[2,3-c]pyrrol-2-yl)-8-methyl-3,12-dioxo-2,5,8,11-tetraazatridecan-13-yl)piperidine-4-carboxamide]					70 to 90
Cn1ncc(-c2nc(N[C@H]3CC[C@H](NCCCCCNCC(=O)NCc4cc5c(s4)C(=O)N(C4CCC(=O)NC4=O)C5)CC3)ncc2Cl)c1CC1CC1 (some centres unmarked) [Compound 60, 2-((5-(((1r,4r)-4-((5-chloro-4-(5-(cyclopropylmethyl)-1-methyl-1H-pyrazol-4-yl)pyrimidin-2-yl)amino)cyclohexyl)amino)pentyl)amino)-N-((5-(2,6-dioxopiperidin-3-yl)-6-oxo-5,6-dihydro-4H-thieno[2,3-c]pyrrol-2-yl)methyl)acetamide]					> 90
Cn1ncc(-c2nc(N[C@H]3CC[C@H](NCC(=O)NCCOCCOCCOCCNCc4cc5c(s4)C(=O)N(C4CCC(=O)NC4=O)C5)CC3)ncc2F)c1CC1CC1 (some centres unmarked) [Compound 62, 2-(((1r,4r)-4-((4-(5-(cyclopropylmethyl)-1-methyl-1H-pyrazol-4-yl)-5-fluoropyrimidin-2-yl)amino)cyclohexyl)amino)-N-(1-(5-(2,6-dioxopiperidin-3-yl)-6-oxo-5,6-dihydro-4H-thieno[2,3-c]pyrrol-2-yl)-5,8,11-trioxa-2-azatridecan-13-yl)acetamide]					> 90
CC(C)(C)c1cnc(CSc2cnc(NC(=O)C3CCN(CC(=O)NCCCNC(=O)NCc4cc5c(s4)C(=O)N(C4CCC(=O)NC4=O)C5)CC3)s2)o1 (centres unmarked) [Compound 12, N-(5-(((5-(tert-butyl)oxazol-2-yl)methyl)thio)thiazol-2-yl)-1-(2-((3-(3-((5-(2,6-dioxopiperidin-3-yl)-6-oxo-5,6-dihydro-4H-thieno[2,3-c]pyrrol-2-yl)methyl)ureido)propyl)amino)-2-oxoethyl)piperidine-4-carboxamide]	25 to 50	25 to 50	≥ 75	≥ 75	> 90
Cn1ncc(-c2nc(N[C@H]3CC[C@H](NCC(=O)NCCCCCNC(=O)NCc4cc5c(s4)C(=O)N(C4CCC(=O)NC4=O)C5)CC3)ncc2F)c1CC1CC1 (some centres unmarked) [Compound 17, 2-(((1r,4r)-4-((4-(5-(cyclopropylmethyl)-1-methyl-1H-pyrazol-4-yl)-5-fluoropyrimidin-2-yl)amino)cyclohexyl)amino)-N-(5-(3-((5-(2,6-dioxopiperidin-3-yl)-6-oxo-5,6-dihydro-4H-thieno[2,3-c]pyrrol-2-yl)methyl)ureido)pentyl)acetamide]	50 to 75	50 to 75	50 to 75	≥ 75	
Cn1ncc(-c2nc(N[C@H]3CC[C@H](NCCCCCCCNCC(=O)NCc4cc5c(s4)C(=O)N(C4CCC(=O)NC4=O)C5)CC3)ncc2Cl)c1CC1CC1 (some centres unmarked) [Compound 53, 2-((7-(((1r,4r)-4-((5-chloro-4-(5-(cyclopropylmethyl)-1-methyl-1H-pyrazol-4-yl)pyrimidin-2-yl)amino)cyclohexyl)amino)heptyl)amino)-N-((5-(2,6-dioxopiperidin-3-yl)-6-oxo-5,6-dihydro-4H-thieno[2,3-c]pyrrol-2-yl)methyl)acetamide]					> 90
CN(CCNC(=O)CN1CCC(C(=O)Nc2ncc(SCc3ncc(C(C)(C)C)o3)s2)CC1)CCNC(=O)NCc1cc2c(s1)C(=O)N(C1CCC(=O)NC1=O)C2 (centres unmarked) [Compound 15, N-(5-(((5-(tert-butyl)oxazol-2-yl)methyl)thio)thiazol-2-yl)-1-(1-(5-(2,6-dioxopiperidin-3-yl)-6-oxo-5,6-dihydro-4H-thieno[2,3-c]pyrrol-2-yl)-7-methyl-3,11-dioxo-2,4,7,10-tetraazadodecan-12-yl)piperidine-4-carboxamide]	< 25	< 25	50 to 75	≥ 75	70 to 90
Cn1ncc(-c2nc(N[C@H]3CC[C@H](NCC(=O)NCCCCCNCC(=O)NCc4scc5c4CN(C4CCC(=O)NC4=O)C5=O)CC3)ncc2Cl)c1CC1CC1 (some centres unmarked) [Compound 31, 2-(((1r,4r)-4-((5-chloro-4-(5-(cyclopropylmethyl)-1-methyl-1H-pyrazol-4-yl)pyrimidin-2-yl)amino)cyclohexyl)amino)-N-(5-((2-(((5-(2,6-dioxopiperidin-3-yl)-4-oxo-5,6-dihydro-4H-thieno[3,4-c]pyrrol-1-yl)methyl)amino)-2-oxoethyl)amino)pentyl)acetamide]	25 to 50	≥ 75	25 to 50	≥ 75	> 90
